# Test results reported in patent publication US20100316622A1, “DIAGNOSIS AND TREATMENT OF CARDIAC DISORDERS” (UNIVERSITY OF MIAMI, priority 2007, published 2010).
# Like-named read-outs stand apart in the source and are kept apart here.
# What was measured:
# [1] = test system: NOS1−/− cardiomyocytes; experiment: Sarcoplasmic reticulum Ca2+ stores by rapid caffeine infusion; settings: for Sarcoplasmic reticulum Ca2+ content (% [Ca2+]i, percent change from baseline): NOS1−/− cardiomyocytes, 4 Hz, caffeine 10 mmol/L, untreated NOS1−/− 13.7±3.1%; for Ca2+ reserves: NOS1−/− myocytes at 4 Hz
# Procedure: In order to assess calcium stores, caffeine (10 mmol/L) was rapidly infused after a 10 second pause following steady-state pacing at 1 and 4 Hz. In order to calculate the [Ca^2+]i of caffeine pulse was normalized as follows:
# ([Ca^2+]i at caffeine−[Ca^2+]i at pacing)/[Ca^2+]i at pacing×100.
# Experiments were then repeated after incubating the cells with previously mentioned drugs.
# [2] = test system: NOS1−/− myocytes; experiment: Force-frequency response: sarcomere shortening and calcium transients; assay type: cell-based, mouse; settings: hydralazine 0.01, nitroglycerin 0.01, DETA/NO 0.1 mmol/L, 5 minutes incubation
# Procedure: (§1) Isolated Myocytes Preparation: Cardiac myocytes were isolated and prepared from mouse hearts as described in detail by Khan et al. (Khan S. A. et al. Circ Res 2003;92:1322-1329). Sarcomere length (SL) and [Ca^2+]i were measured simultaneously in myocytes stimulated at 1, 2, 4, 6 and 8 Hz. […] All experiments were conducted at 37° C. SL was recorded with an IonOptix iCCD camera. Change in average SL was determined by Fast Fourier Transform analysis of the Z-line density trace to the frequency domain, and SL Shortening was calculated as follows: (diastolic SL—systolic SL)/diastolic SL. Intracellular calcium, was measured using the Ca^2+-sensitive dye Fura-2 and a dual-excitation spectrofluorometer (IonOptix), alternately excited with a xenon lamp at wavelengths of 365 and 380 nm The emission fluorescence was reflected through a barrier filter (510±15 nm) to a photomultiplier tube. The Fura-2 fluorescence ratio, i.e., the ratio of the photon live count detected by the excitation at 365 nm compared with 380 nm, represents [Ca^2]i.
# [3] = test system: wt myocytes; experiment: as above; assay type: cell-based, mouse; settings: hydralazine 0.01, nitroglycerin 0.01, DETA/NO 0.1 mmol/L, 5 minutes incubation
# Procedure: as §1
# [4] = test system: NOS1−/− myocytes; experiment: SR Ca2+ leakage protocol, Example 1 (0Na/0Ca buffer, caffeine); assay type: cell-based, mouse
# Procedure: The hearts were cannulated and perfused trough the aorta with Ca^2+-free bicarbonate buffer containing (in mM) 120 NaCl, 5.4 KCl, 1.2 MgSO4, 1.2 NaH2PO4, 5.6 glucose, 20 NaHCO3, 10 2,3-butanedione monoxime (BDM; Sigma), and 5 taurine (Sigma), gassed with 95% O2-5% CO2, followed by enzymatic digestion with collagenase type 2 (1 mg/ml; Worthington) and protease type XIV (0.1 mg/ml; Sigma). Ventricular myocytes were obtained by mechanical disruption of digested hearts, filtration, centrifugation, and resuspension in a Tyrode solution containing (in mM) 0.125 mM CaCl2 144 NaCl, 1 MgCl2, 10 HEPES, 5.6 Glucose, 1.2 NaHPO4, 5 KCl, adjusted to a pH of 7.4 with NaOH. Then, the Ca^2+ content of the buffer was increased in steps until reaching 1.8 mM.
# Myocytes were incubated with 5 μmol/L fura-2/AM (Molecular Probes, Eugene, Oreg.) then transferred to a Lucite chamber on the stage of an inverted microscope (Nikon TE 200), continuously superfused with Tyrode solution. Sarcomere length (SL) and Ca^2+ transients ([Ca^2+]i) were measured in myocytes stimulated at 1, 2, 4, 6 and 8 Hz. All experiments were conducted at 37° C.
# Calcium leakage was assessed as described by Shannon et al (Shannon, T. R. et al., 2002. Circ. Res. 91:594-600). Ventricular myocytes were paced by field stimulation at the different frequencies in normal Tyrode until cellular Ca^2+ transients reached a steady state. After the last pulse, the superfusing solution was rapidly switched to 0Na^+-0Ca^2+ (Na^+ replaced by Li^+) Tyrode with or without 1 mmol/L tetracaine. In the control condition, [Ca^2+]i was monitored while 0Na^+-0Ca^2+ Tyrode buffer was applied at least 40 seconds, then a rapid pulse of 10 mm/L caffeine was added to cause SR Ca^2+ release. The difference between the basal and the peak total cytosolic [Ca^2+]i in the presence of caffeine is therefore [Ca^2+]T. In the test condition, 0Na+0Ca^2+ Tyrode was applied with tetracaine. In this condition, the leakage is blocked and the difference in [Ca^2+]T between tetracaine and control condition corresponds to diastolic leakage. […]
# [5] = target: T1, xanthine oxidoreductase (XOR) (Mus musculus, UniProt Q00519); experiment: Xanthine oxidoreductase activity, Amplex red superoxide production in heart homogenates; assay type: biochemical
# T1 construct: NOS 1^−/− cardiac homogenates as source of the enzyme; from tissue; host or cells: heart homogenate of NOS1-/- mice, passed through Sephadex G-25
# Procedure: (§2) Xanthine Oxidoreductase activity: XOR activity was investigated by measuring uric acid and superoxide production. Heart homogenates were passed through a Sephadex G-25 column (GE Healthcare, Piscataway, N.J.) and XOR-dependent superoxide production was measured using Amplex red (Molecular Probes, Eugene, Oreg.) (0.05 mmol/L), horseradish peroxidase (HRP, 0.2 U/ml) and xanthine (0.1 mmol/L). In the assay, xanthine oxidase catalyzes the oxidation of xanthine to uric acid and superoxide. Superoxide spontaneously degrades to hydrogen peroxide (H2O2), and this, in the presence of HRP, reacts with Amplex Red to generate resurofin. Resurofin fluorescence was measured at 590 nm with excitation at 530-560 nm In parallel, the processed effluent was assessed spectrophotometrically at 295 nm for uric acid. The reaction mixture in 50 mM phosphate buffer, pH 7.4, contained 50 μl of the effluent, EDTA-Na2 (1 mmol/L), xanthine (0.2 mmol/L). […] The obtained values were plotted against a standard curve with known concentrations of XOR.
# [6] = target: T1, xanthine oxidoreductase (XOR); experiment: Xanthine oxidoreductase activity, uric acid production in heart homogenates; assay type: biochemical; settings: NOS1−/− cardiac homogenates, xanthine 0.2 mmol/L
# Procedure: as §2
# [7] = target: NADPH oxidase (NOX); experiment: NADPH oxidase dependent ONOO− production, APF fluorescence in heart homogenates; assay type: biochemical, mouse; settings: NOS1−/− heart extracts, NADPH 0.3 mmol/L; read-out: IC50, NOX-dependent peroxynitrite production
# Procedure: NADPH oxidase dependent and XOR dependent ONOO— production: NADPH oxidase and XOR dependent ONOO— production was measured in heart homogenates using p-aminophenyl fluorescein (APF) as indicator. Proteins were diluted in modified Krebs-HEPES buffer and incubated with NADPH or xanthine for 30 minutes at 37° C. APF was added just before the fluorescence readings, measuring at 515 nm with excitation at 490 nm.
# [8] = test system: NADPH oxidase (NOX); experiment: NOX-dependent superoxide production, lucigenin chemiluminescence in heart homogenates; assay type: biochemical, mouse; settings: NOS1−/− cardiac homogenates
# Procedure: NOX-dependent superoxide production: NADPH-dependent superoxide production was measured in heart homogenates using lucigenin (5 μmol/L)-enhanced chemiluminescence (β-NADPH 300 μmol/L; room temperature) on a microplate luminometer (Veritas, Turner Biosystems, Sunnyvale, Calif.). Briefly, proteins were diluted in modified Krebs-HEPES buffer. NADPH and lucigenin were added to wells just before reading. Chemiluminescence readings were expressed as integrated light units. […] Experiments also were performed in the presence of the flavoprotein inhibitor diphenyleneiodonium (DPI, 0.01 mmol/L).
# [9] = test system: NOS1−/− myocytes; experiment: Assessment of SR Ca2+ leakage with tetracaine, Example 2; assay type: cell-based, mouse
# Procedure: Assessment of SR Ca^2+ leakage: Calcium leakage was assessed as described by Shannon et al (Shannon T. R. et al. Circ Res 2002; 91:594-600). Ventricular myocytes were paced by field stimulation at the different frequencies in normal Tyrode until cellular Ca^2+ transients reached a steady state. After the last pulse, the superfusing solution was rapidly switched to 0Na^+-0Ca^2+(Na^+ replaced by Li^+) Tyrode with or without 1 mmol/L tetracaine. In the control condition, [Ca^2+]i was monitored while 0Na^+-0Ca^2+ Tyrode buffer was applied at least 40 seconds, rapid pulse of 10 mm/L caffeine was added to cause SR Ca^2+ release. The difference between the basal and the peak total cytosolic [Ca^2+]i in the presence of caffeine is, therefore, [Ca^2+]τ. In the test condition, 0Na^+0Ca^2+ Tyrode was applied with tetracaine. In this condition, the leakage is blocked and the difference in [Ca^2+]τ between tetracaine and control condition is diastolic leakage. To calculate [Ca^2+]τ in the SR, the total SR volume was considered 3% of the cell volume and the cytosol volume, 65% of the cell volume.
# [10] = 100 μM, paced at 4 Hz, NOS1−/− myocytes
# T1 sequence (Q00519 whole entry): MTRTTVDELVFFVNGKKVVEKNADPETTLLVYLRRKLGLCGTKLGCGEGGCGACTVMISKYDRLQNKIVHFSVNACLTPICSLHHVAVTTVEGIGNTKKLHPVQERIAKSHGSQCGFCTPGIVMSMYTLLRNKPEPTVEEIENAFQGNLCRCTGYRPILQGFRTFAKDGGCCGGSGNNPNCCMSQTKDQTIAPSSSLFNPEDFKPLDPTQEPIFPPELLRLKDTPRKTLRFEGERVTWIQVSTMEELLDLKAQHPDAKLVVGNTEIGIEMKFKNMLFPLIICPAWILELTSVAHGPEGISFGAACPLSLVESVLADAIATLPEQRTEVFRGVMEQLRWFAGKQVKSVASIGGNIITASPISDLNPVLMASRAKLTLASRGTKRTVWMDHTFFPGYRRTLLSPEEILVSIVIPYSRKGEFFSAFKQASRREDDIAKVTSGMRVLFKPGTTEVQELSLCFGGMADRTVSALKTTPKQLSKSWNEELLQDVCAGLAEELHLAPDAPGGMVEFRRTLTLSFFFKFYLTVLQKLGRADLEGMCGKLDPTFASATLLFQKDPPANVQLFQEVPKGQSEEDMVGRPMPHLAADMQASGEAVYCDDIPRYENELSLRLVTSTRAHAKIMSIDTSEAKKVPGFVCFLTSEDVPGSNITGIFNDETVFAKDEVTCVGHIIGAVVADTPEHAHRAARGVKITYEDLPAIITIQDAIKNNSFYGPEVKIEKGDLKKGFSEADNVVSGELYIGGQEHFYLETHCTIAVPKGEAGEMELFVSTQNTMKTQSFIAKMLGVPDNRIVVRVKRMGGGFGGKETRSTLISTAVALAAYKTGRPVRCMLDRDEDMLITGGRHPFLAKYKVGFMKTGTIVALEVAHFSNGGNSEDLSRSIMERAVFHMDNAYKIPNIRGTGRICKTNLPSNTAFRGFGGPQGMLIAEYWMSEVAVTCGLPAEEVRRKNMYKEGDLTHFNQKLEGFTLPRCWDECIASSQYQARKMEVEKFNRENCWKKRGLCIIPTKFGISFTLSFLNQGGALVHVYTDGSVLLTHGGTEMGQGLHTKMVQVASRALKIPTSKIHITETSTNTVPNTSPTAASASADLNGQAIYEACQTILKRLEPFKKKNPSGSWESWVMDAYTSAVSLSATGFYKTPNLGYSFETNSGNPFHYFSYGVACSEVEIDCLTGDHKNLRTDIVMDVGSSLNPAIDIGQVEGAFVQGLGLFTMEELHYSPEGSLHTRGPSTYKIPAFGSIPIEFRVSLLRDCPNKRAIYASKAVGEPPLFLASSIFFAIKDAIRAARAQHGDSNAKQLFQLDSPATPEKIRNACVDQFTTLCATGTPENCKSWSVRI
structure (smiles),measurement,setting,value
"NCCN(CCN)/[N+]([O-])=N/O [DETA/NO, diethylenetriamine/nitric oxide adduct]","Sarcoplasmic reticulum Ca2+ content (% [Ca2+]i, percent change from baseline)",[1],42.8±6.5%
same,Ca2+ reserves,[1],increased
same,suppressed SL and [Ca2+]i responses,[2],restored towards levels similar to WT
same,sarcomere shortening or calcium transients,[3],no effect
same,SR content,[4]; [10],increased
same,diastolic Ca2+ waves,[4]; [10],did not reduce
NNc1nncc2ccccc12 [hydralazine],"Sarcoplasmic reticulum Ca2+ content (% [Ca2+]i, percent change from baseline)",[1],49.2±16.3%
same,sarcomere shortening or calcium transients,[3],no effect
same,IC50,"[5]; NOS1−/− cardiac homogenates, xanthine 0.1 mmol/L, read-out: IC50, Amplex red XOR activity",700 ± 300 µM
O=[N+]([O-])OCC(CO[N+](=O)[O-])O[N+](=O)[O-] [nitroglycerin],XOR enzyme activity (uric acid conversion),[6],did display XOR-inhibitory activity
same,"Sarcoplasmic reticulum Ca2+ content (% [Ca2+]i, percent change from baseline)",[1],42.8±6.5%
same,Ca2+ reserves,[1],increased
same,IC50,[7],1300 ± 400 µM
same,suppressed SL and [Ca2+]i responses,[2],restored towards levels similar to WT
same,sarcomere shortening or calcium transients,[3],no effect
same,concentration that decreased NOX activity / NOX dependent superoxide production,[8],> 0.01 mmol/L
same,IC50,[8]; NADPH 0.3 mmol/L,13 µM
same,"Diastolic Ca2+ leak, drug alone","[9]; nitroglycerin 10 μmol/L, hydralazine 100 μmol/L",not abolished
same,IC50,[5],1000 ± 400 µM
CCCCNc1ccc(C(=O)OCCN(C)C)cc1 [tetracaine],spontaneous Ca2+ waves,[9]; tetracaine 1 mmol/L,abolished
same,spontaneous Ca2+ transients (waves) during 0Na+/0Ca2+ treatment,"[4]; NOS1−/− and NOS3/NOS1−/− myocytes, 1 mmol/L tetracaine",abolished
